Experimental data taken from PMC12113347, “Compound 3d Attenuates Metabolic Dysfunction-Associated Steatohepatitis via Peroxisome Proliferator-Activated Receptor Pathway Activation and Inhibition of Inflammatory and Apoptotic Signaling” (Metabolites, 2025).

Columns and labels:
[1] = in vivo; cited from earlier work
[2] = In vitro stability in DMEM medium, simulated gastric fluid and simulated intestinal fluid (HPLC); assay type: in vitro ADME; conditions: 40 μM, 37 °C
Method: Elafibranor and 3d (40 μM) were dissolved in DMEM medium, as well as in simulated gastric fluid (SGF) and simulated intestinal fluid (SIF), respectively, at 37 °C. The concentration of the compounds was determined within 24 h by HPLC. The HPLC conditions comprised an ACQUITY UPLC BEH C18 column maintained at 40 °C with a mobile phase consisting of 20% ultrapure water and 80% acetonitrile, with a flow rate of 1 mL/min at 360 nm.

[3] = tested on: C57BL/6J male mice; test: HFD-induced MASH model in mice: serum and liver biochemistry, body and liver weight, histology; assay type: in vivo; conditions: HFD mice; for body weight: 8 weeks of treatment; for serum TG levels: 8 weeks, fenofibrate 100 mg/kg, elafibranor 30 mg/kg, 3d 3, 10, 30 mg/kg; for liver weight/body weight: indicator for evaluating drug toxicity
Method: All animal studies were conducted in accordance with national legislation and local guidelines at the Center for Laboratory Animals in Tianjin University of Science and Technology and approved by the Animal Ethics Committee of Tianjin University of Science and Technology (8 March 2022, Tianjin, China). The C57BL/6J male mice (6 weeks) were purchased from Henan Scribex Biotechnology Co, Ltd (Zhenzhou, China). Following a one-week period of acclimatization, the mice were fed a high-fat diet (HFD) comprising 60% fat (TP23300, Trophic Animal Feed High-Tech Co., Ltd., (Nantong, China)) and a low-fat control diet (TP23302, Trophic Animal Feed High-Tech Co., Ltd., (Nantong, China)) for 16 weeks.
After 16 weeks of continuous feeding on a high-fat diet, key indicators were tested to determine modeling success and drug administration was initiated. The mice were randomly divided into seven groups (n = 10) according to their body weight. The groups were as follows: control group (control diet, 0.5% CMC-Na), model group (HFD, 0.5% CMC-Na), positive control group (HFD, 100 mg/kg Fenofibrate), elafibranor group (HFD, 30 mg/kg), and 3d group (HFD, 3, 10, 30 mg/kg). The experiment was conducted over a period of eight weeks.
After fasting for 12 h, the mice were anaesthetized and blood samples were collected, as were the mice liver tissues. The ileal contents were collected and immediately frozen in liquid nitrogen and then transferred to storage at −80 °C. The blood samples were subjected to centrifugation at 3000 rpm/min for 10 min to obtain supernatant serum, which was stored at −80 °C. The liver tissues were weighed, and a portion of the liver was preserved in 4% paraformaldehyde for subsequent pathological sectioning, including staining with H&E, Masson, and Oil Red O. The remaining samples were stored at −80 °C for testing of various biochemical indices.
The serum levels of TG, total cholesterol (TC), low-density lipoprotein cholesterol (LDL-C), […] aminotransferase (AST), ALT, and TNF-α were determined according to the instructions of the kit. The levels of glutathione (GSH) and superoxide dismutase (SOD) were measured using liver tissue homogenates. The kits were purchased from the Nanjing Jiancheng Institute of Biological Engineering (Nanjing, China).

CSc1ccc(C(=O)/C=C/c2cc(C)c(OC(C)(C)C(=O)O)c(C)c2)cc1 [elafibranor, Elafibranor, reference compound]
oral bioavailability [1]: around 30% | concentration in culture medium (stability) ([2]; DMEM, within 24 h): remained relatively constant | concentration in gastric fluid (stability) ([2]; SGF): decreased significantly after 60 min | concentration in intestinal fluid (stability) ([2]; SIF, within 24 h): remained relatively constant | liver steatosis and lipid accumulation (HE, Oil Red O sections) [3]: effective in reducing the degree of steatosis and reducing lipid accumulation better than fenofibrate but still could not bring them back to fully normal | body weight [3]: decrease in body weight | serum TG levels [3]: decreased and returned to normal levels | liver weight/body weight [3]: substantial influence on the rise

CC(C)OC(=O)C(C)(C)Oc1ccc(C(=O)c2ccc(Cl)cc2)cc1 [fenofibrate, Fenofibrate, reference compound]
liver steatosis and lipid accumulation (HE, Oil Red O sections) [3]: improved the steatosis and reduced lipid accumulation in the liver to some extent | body weight [3]: decrease in body weight | serum TG levels [3]: decreased and returned to normal levels | liver weight/body weight [3]: substantial influence on the rise
